Measurements taken from patent publication US6376666B1 (Nauchno-Issledovatelsky Institut Farmakologii Rossiiskoi …, priority 1994, dated 2002).
“And” between values parts separate entries of the source, which are not always exact repeats. Equal entries are not always repeated. “Also recorded” adds a separate entry of the source.

Tests used:
[1] = tested on: calcium chloride arrhythmia; assay: calcium chloride arrhythmia in concious rats; assay type: in vivo; conditions: concious rats
Experimental: In these experiments the outbred concious rats 180-200 g of weight were injected with 10% solution of calcium chloride in tail vein at dose range of 250-300 mg/kg.

cats = assay: hemodynamics and activity of intact heart in cats under anesthesia; assay type: in vivo; conditions: for Cardiac volume, change from basal level / Heart rate, change from basal level / Mean blood flow accelaration (aortic), change from basal level / Mean blood pressure, change from basal level / Stroke volume, change from basal level: cats
Experimental: The effects of compounds on the hemodynamics and activity of intact heart were studied in cats under anesthesia. The experiments were carried out under conditions of open chest. The phase curve of aortic blood flow was the main index of cardiac activity. The compounds were administered i.v. in physiological solution. The t-Student' test was used to estimate the statistical significance.

adrenaline arrhythmia = adrenaline arrhythmia in concious rabbits; conditions: given 2 min before arrhythmogenic dose of adrenaline
Experimental: Adrenaline arrhythmia. The 0,1% solution of adrenaline hydrochloride was injected to the marginal ear's vein of rabbit weighing 2,5-3,0 kg at dose ranging 120-150 mcg/kg which induced cardiac rhythm disturbances of two types.
The tested compound was injected in 3 ml of distilled water 30 min after determination of arrhythmogenic dose of adrenaline and the ECG was recorded in 2nd standard lead. 2 min after administration of tested compound the arrhythmogenic dose of adrenaline was injected.

[2] = tested on: ventricular disturbances of heart rhythm; assay: arrhythmia in concious dogs according to Harris; assay type: in vivo; conditions: for % of the ectopic contractions / heart rate: concious dogs according to Harris, compound XX 1.0 mg/kg i.v., individual dogs
Experimental: The arrhythmia in concious dogs according to Harris. The experiments were conducted in mongrel dogs of either sex weighing 9-14 kg. Under anesthesia (40 mg/kg of nembutal i.v.) and artificial respiration the two-step occlusion of the left anterior descending coronary artery was performed. The constant ECG disturbances of the heart rhythm were recorded after 24 hours. […] T-Student' test was used for statistical calculation.

[3] = 1.0 mg/kg i.v., after injection
[4] = 2.0 mg/kg i.v., after injection
[5] = 10 min after compound injection
[6] = 15 min after compound injection
[7] = 20 min after compound injection
[8] = 30 min after compound injection
[9] = 40 min after compound injection
[10] = 50 min after compound injection

CN(C)CCSc1nc2ccccc2n1CCc1ccccc1 [Compound XX, 1-(β-Phenylethyl)-2-[2-(dimethylamino)ethylthio]-benzimidazole]
ED50 ([1]; Rattus norvegicus, iv, given 2 min prior calcium chloride 250-300 mg/kg i.v., read-out: Calcium chloride arrhythmia ED50 (mean effective dose)): 2.03 mg/kg
Calcium chloride arrhythmia ED50 (mean effective dose) ([1]; given 2 min prior calcium chloride 250-300 mg/kg i.v.): 2.0 mg/kg
effect on death from lethal ventricular fibrillation, in words ([1]; injected 2 min prior calcium chloride): prevents the death of animals
effect on contractile function of heart, in words (cats; cats i.v., same doses as bradycardia): slightly enhanced the contractility of myocardium
duration of bradycardia after administration (cats; cats i.v., VIII 1,0, IX 0,5 and 1,0, XX 1,0 and 2,0 mg/kg): 30 min
effect on heart rate, in words (cats; cats i.v., VIII 1,0, IX 0,5 and 1,0, XX 1,0 and 2,0 mg/kg, XXIII 1.0, verapamil 0.5 mg/kg): expressed bradycardia
Cardiac volume, change from basal level (cats; 1.0 mg/kg i.v., after 2 min): +2.5 ± 0.9%
Heart rate, change from basal level (cats; 1.0 mg/kg i.v., after 2 min): −4.9 ± 1.5 %
Mean blood flow accelaration (aortic), change from basal level (cats; 1.0 mg/kg i.v., after 2 min): −1.4 +1.8%
Mean blood pressure, change from basal level (cats; 1.0 mg/kg i.v., after 2 min): ± 5.1 ± 1.7 %
Stroke volume, change from basal level (cats; 1.0 mg/kg i.v., after 2 min): +7.9 ± 1.6 %
Cardiac volume, change from basal level (cats; 1.0 mg/kg i.v., after 5 min): −3.9 ± 1.5%
Heart rate, change from basal level (cats; 1.0 mg/kg i.v., after 5 min): −5.2 ± 2.1%
Mean blood flow accelaration (aortic), change from basal level (cats; 1.0 mg/kg i.v., after 5 min): −3.6 ± 2.4%
Mean blood pressure, change from basal level (cats; 1.0 mg/kg i.v., after 5 min): +2.0 ± 1.0%
Stroke volume, change from basal level (cats; 1.0 mg/kg i.v., after 5 min): +1.7 ± 3.4%
Cardiac volume, change from basal level (cats; 1.0 mg/kg i.v., after 10 min): −3.9 ± 2.8%
Heart rate, change from basal level (cats; 1.0 mg/kg i.v., after 10 min): −4.3 ± 1.9%
Mean blood flow accelaration (aortic), change from basal level (cats; 1.0 mg/kg i.v., after 10 min): −0.6 ± 2.1%
Mean blood pressure, change from basal level (cats; 1.0 mg/kg i.v., after 10 min): +1.7 ± 1.2%
Stroke volume, change from basal level (cats; 1.0 mg/kg i.v., after 10 min): +0.6 ± 3.5%
Cardiac volume, change from basal level (cats; 1.0 mg/kg i.v., after 20 min): −4.1 ± 2.8%
Heart rate, change from basal level (cats; 1.0 mg/kg i.v., after 20 min): −5.0 ± 4.2%
Mean blood flow accelaration (aortic), change from basal level (cats; 1.0 mg/kg i.v., after 20 min): −2.8 ± 2.6%
Mean blood pressure, change from basal level (cats; 1.0 mg/kg i.v., after 20 min): +3.3 ± 2.4%
Stroke volume, change from basal level (cats; 1.0 mg/kg i.v., after 20 min): +1.4 ± 3.8%
Cardiac volume, change from basal level (cats; 1.0 mg/kg i.v., after 30 min): −7.0 ± 3.4%
Heart rate, change from basal level (cats; 1.0 mg/kg i.v., after 30 min): −5.0 ± 4.2%
Mean blood flow accelaration (aortic), change from basal level (cats; 1.0 mg/kg i.v., after 30 min): −3.2 ± 1.8%
Mean blood pressure, change from basal level (cats; 1.0 mg/kg i.v., after 30 min): +0.3 ± 3.0%
Stroke volume, change from basal level (cats; 1.0 mg/kg i.v., after 30 min): −0.5 ± 4.4%
Heart rate, change from basal level (cats; [3]): −7.9 ± 1.7 %
Mean blood flow accelaration (aortic), change from basal level (cats; [3]): +10.7 ± 3.3 %
Mean blood pressure, change from basal level (cats; [3]): −0.9 ± 2.7%
Stroke volume, change from basal level (cats; [3]): +25.2 ± 2.6 %
Cardiac volume, change from basal level (cats; 2.0 mg/kg i.v., after 2 min): +1.2 ± 2.8%
Heart rate, change from basal level (cats; 2.0 mg/kg i.v., after 2 min): −5.2 ± 1.8 %
Mean blood flow accelaration (aortic), change from basal level (cats; 2.0 mg/kg i.v., after 2 min): −3.0 ± 3.9%
Mean blood pressure, change from basal level (cats; 2.0 mg/kg i.v., after 2 min): ± 4.6 ± 3.5%
Stroke volume, change from basal level (cats; 2.0 mg/kg i.v., after 2 min): +6.9 ± 3.1%
Cardiac volume, change from basal level (cats; 2.0 mg/kg i.v., after 5 min): −0.5 ± 3.1%
Heart rate, change from basal level (cats; 2.0 mg/kg i.v., after 5 min): −4.5 ± 1.4 %
Mean blood flow accelaration (aortic), change from basal level (cats; 2.0 mg/kg i.v., after 5 min): +1.6 ± 5.1%
Mean blood pressure, change from basal level (cats; 2.0 mg/kg i.v., after 5 min): +3.3 ± 2.5%
Stroke volume, change from basal level (cats; 2.0 mg/kg i.v., after 5 min): +4.2 ± 3.8%
Cardiac volume, change from basal level (cats; 2.0 mg/kg i.v., after 10 min): −1.4 ± 3.0%
Heart rate, change from basal level (cats; 2.0 mg/kg i.v., after 10 min): −3.1 ± 1.6%
Mean blood flow accelaration (aortic), change from basal level (cats; 2.0 mg/kg i.v., after 10 min): −1.0 ± 3.1%
Mean blood pressure, change from basal level (cats; 2.0 mg/kg i.v., after 10 min): −1.0 ± 1.8%
Stroke volume, change from basal level (cats; 2.0 mg/kg i.v., after 10 min): +1.8 ± 2.1%
Cardiac volume, change from basal level (cats; 2.0 mg/kg i.v., after 20 min): −4.7 ± 5.2%
Heart rate, change from basal level (cats; 2.0 mg/kg i.v., after 20 min): −3.6 ± 1.7%
Mean blood flow accelaration (aortic), change from basal level (cats; 2.0 mg/kg i.v., after 20 min): −3.8 ± 4.0%
Mean blood pressure, change from basal level (cats; 2.0 mg/kg i.v., after 20 min): −5.3 ± 0.8 %
Stroke volume, change from basal level (cats; 2.0 mg/kg i.v., after 20 min): −1.1 ± 5.4%
Cardiac volume, change from basal level (cats; 2.0 mg/kg i.v., after 30 min): −5.5 ± 5.2%
Heart rate, change from basal level (cats; 2.0 mg/kg i.v., after 30 min): −4.0 ± 2.2%
Mean blood flow accelaration (aortic), change from basal level (cats; 2.0 mg/kg i.v., after 30 min): −6.2 ± 4.9%
Mean blood pressure, change from basal level (cats; 2.0 mg/kg i.v., after 30 min): −9.6 ± 3.5%
Stroke volume, change from basal level (cats; 2.0 mg/kg i.v., after 30 min): +1.7 ± 3.9%
Cardiac volume, change from basal level (cats; [4]): +22.7 ± 6.6 %
Heart rate, change from basal level (cats; [4]): −10.7 ± 2.5 %
Mean blood flow accelaration (aortic), change from basal level (cats; [4]): +22.5 ± 9.3%
Mean blood pressure, change from basal level (cats; [4]): −13.6 ± 5.1%
Stroke volume, change from basal level (cats; [4]): +38.5 ± 10.6 %
Adrenaline arrhythmia. Range of active doses (adrenaline arrhythmia): 0.2−0.7 mg/kg
% of the ectopic contractions ([2]; 3 min after compound injection): 64% and 30% and 72% and 80%
heart rate ([2]; 3 min after compound injection): 93 beats/min and 172 beats/min and 145 beats/min and 103 beats/min
% of the ectopic contractions ([2]; 5 min after compound injection): 52% and 20% and 63% and 82%
heart rate ([2]; 5 min after compound injection): 89 beats/min and 167 beats/min and 138 beats/min and 98 beats/min
% of the ectopic contractions [2, 5]: 50% and 18% and 60% and 81%
heart rate [2, 5]: 102 beats/min and 163 beats/min and 129 beats/min and 75 beats/min
% of the ectopic contractions [2, 6]: 51% and 0% and 58% and 91%
heart rate [2, 6]: 88 beats/min and 159 beats/min and 125 beats/min and 100 beats/min
% of the ectopic contractions [2, 7]: 56% and 0% and 66% and 92%
heart rate [2, 7]: 74 beats/min and 155 beats/min and 132 beats/min and 78 beats/min
% of the ectopic contractions [2, 8]: 62% and 10% and 74% and 91%
heart rate [2, 8]: 94 beats/min and 168 beats/min and 135 beats/min and 117 beats/min
% of the ectopic contractions [2, 9]: 66% and 8% and 79% and 97%
heart rate [2, 9]: 105 beats/min and 185 beats/min and 148 beats/min and 106 beats/min
% of the ectopic contractions [2, 10]: 63% and 10% and 81% and 94%
heart rate [2, 10]: 128 beats/min and 198 beats/min and 159 beats/min and 109 beats/min
antiarrhythmic effect, in words ([2]; concious dogs with ventricular disturbances of heart rhythm, i.v.): pronounced antiarrhythmic effect
effect on heart rate, in words ([2]; concious dogs, i.v.): pronounced bradycardia
tolerability / side effects, in words ([2]; concious dogs, i.v.): well tolerated by the animals; also recorded: no side effects
